In patent US20160376263A1, “BITTER TASTE MODIFIERS INCLUDING SUBSTITUTED 1-BENZYL-3-(1-(ISOXAZOL-4-YLMETHYL)-1H-PYRAZOL-4-YL)IMIDAZOLIDINE-2,4-DIONES AND COMPOSITIONS THEREOF” (SENOMYX, INC., priority 2016, published 2016):

How the values were obtained:
hT2R8 bitter receptor = biological target: T1, hT2R8 bitter receptor (Homo sapiens, UniProt Q9NYW2); assay: hT2R8 bitter receptor inhibition; format: cell-based; details: read-out: IC50, inhibition of hT2R08 bitter receptor
T1 sequence (Q9NYW2 1-309): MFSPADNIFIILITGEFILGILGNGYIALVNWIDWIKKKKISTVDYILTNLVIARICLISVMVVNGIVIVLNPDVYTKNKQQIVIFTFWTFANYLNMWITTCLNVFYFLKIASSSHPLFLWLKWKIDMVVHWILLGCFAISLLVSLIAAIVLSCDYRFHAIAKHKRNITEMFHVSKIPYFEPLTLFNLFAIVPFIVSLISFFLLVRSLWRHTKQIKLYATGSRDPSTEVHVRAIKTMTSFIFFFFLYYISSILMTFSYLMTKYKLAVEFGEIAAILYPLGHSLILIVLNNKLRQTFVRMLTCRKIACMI

- melting point: 213 to 215 °C
- IC50 (hT2R8 bitter receptor): 0.01 µM
Compound: Cc1noc(C)c1Cn1cc(N2C(=O)N(Cc3cc(O)cc(O)c3)C(C)(C)C2=O)cn1 [Example 105]
